In patent US6914045B2, “Glycopeptide antibiotics” (Wyeth Holdings Corporation, priority 2001, dated 2005):

Experiments:
Assay in all cases: in vitro antibacterial evaluation, MIC by broth dilution
Format in all cases: cell-based
Enterococcus sp. = settings: broth dilution, 18 hours at 35° C.
In short: (§1)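 Broth dilution per NCCLS M7-A2 in Mueller-Hinton II medium, inoculum 5×10^5 CFU/mL, antibiotic range 64-0.06 μg/mL. MIC taken as lowest concentration inhibiting growth; Gram-positive panel includes recent clinical isolates resistant to methicillin, penicillin and/or vancomycin.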

Streptococcus sp. = settings: broth dilution, 18 hours at 35° C.
In short: as §1

Staphylococcus sp. = settings: broth dilution, 18 hours at 35° C.
In short: as §1

Escherichia coli = settings: 18 hours at 35° C.
[1] = inoculum 5×10^5 CFU/mL, strain GC 2242
[2] = inoculum 5×10^5 CFU/mL, strain GC 2691
[3] = inoculum 5×10^5 CFU/mL, strain GC 3059
[4] = inoculum 5×10^5 CFU/mL, strain ATCC 6301
[5] = inoculum 5×10^5 CFU/mL, strain GC 1894
[6] = inoculum 5×10^5 CFU/mL, strain GC 4563
[7] = inoculum 5×10^5 CFU/mL, strain GC 4564
[8] = inoculum 5×10^5 CFU/mL, strain GC 4565

COc1ccc2cc(COC3C(OC4C(CO)OC(Oc5ccc(CC6NC(=O)C(C(C)c7ccccc7)NC(=O)CNC(=O)C(CO)NC(=O)C(C(O)C7CNC(=N)N7C7OC(CO)C(O)C(O)C7O)NC(=O)C(C(O)C7CNC(=N)N7)NC6=O)cc5)C(O)C4O)OC(CO)C(O)C3O)ccc2c1 (stereo not drawn) [Example 230c, Cyclo[glycyl-β-methylphenylalanyl-O-[4-O-[2-O-[(6-methoxy-2-naphthyl)methyl]hexopyranosyl]hexopyranosyl]tyrosyl-3-(2-iminoimidazolidin-4-yl)seryl-3-(3-hexopyranosyl-2-iminoimidazolidin-4-yl)serylseryl]]
>128 mg/L: MIC Enterococcus faecalis (ATCC 29212) (Enterococcus sp.) | MIC Enterococcus faecalis (GC 2242) (Enterococcus sp.) | MIC Enterococcus faecalis (GC 2691) (Enterococcus sp.) | MIC Enterococcus faecalis (GC 3059) (Enterococcus sp.) | MIC Enterococcus faecalis (GC 4552) (Enterococcus sp.) | MIC Enterococcus faecalis (GC 4554) (Enterococcus sp.) | MIC Enterococcus faecalis (GC 6189) (Enterococcus sp.) | MIC Enterococcus faecium (GC 4556) (Enterococcus sp.) | MIC Enterococcus faecalis (ATCC 29212) (Enterococcus sp.; inoculum 5×10^5 CFU/mL, strain ATCC 29212) | MIC Enterococcus faecalis (GC 2242) (Enterococcus sp.; [1]) | MIC Enterococcus faecalis (GC 2691) (Enterococcus sp.; [2]) | MIC Enterococcus faecalis (GC 3059) (Enterococcus sp.; [3]) | MIC Enterococcus faecalis (GC 4552) (Enterococcus sp.; inoculum 5×10^5 CFU/mL, strain GC 4552) | MIC Enterococcus faecalis (GC 4554) (Enterococcus sp.; inoculum 5×10^5 CFU/mL, strain GC 4554) | MIC Enterococcus faecium (GC 4556) (Enterococcus sp.; inoculum 5×10^5 CFU/mL, strain GC 4556) | MIC Enterococcus faecalis (GC 6189) (Enterococcus sp.; inoculum 5×10^5 CFU/mL, strain GC 6189) | MIC Staphylococcus aureus (GC 4542) (Staphylococcus sp.) | MIC Staphylococcus aureus (GC 4542) (Staphylococcus sp.; strain GC 4542) | MIC Escherichia coli (ATCC 25922) (Escherichia coli) | MIC Escherichia coli (GC 4559) (Escherichia coli)
64 mg/L: MIC Streptococcus pyogenes (GC 4563) (Streptococcus sp.) | MIC Streptococcus pyogenes (GC 4563) (Streptococcus sp.; [6]) | MIC Coagulase Negative Staphylococcus (GC 4547) (Staphylococcus sp.) | MIC Coagulase Negative Staphylococcus (GC 4548) (Staphylococcus sp.) | MIC Coagulase Negative Staphylococcus (GC 4549) (Staphylococcus sp.) | MIC Coagulase Negative Staphylococcus (GC 4551) (Staphylococcus sp.) | MIC Staphylococcus aureus (GC 4541) (Staphylococcus sp.) | MIC Staphylococcus aureus-SMITH (GC 4543) (Staphylococcus sp.) | MIC Staphylococcus haemolyticus (GC 4546) (Staphylococcus sp.) | MIC Staphylococcus aureus (GC 4541) (Staphylococcus sp.; strain GC 4541) | MIC Staphylococcus aureus-SMITH (GC 4543) (Staphylococcus sp.; strain GC 4543) | MIC Staphylococcus haemolyticus (GC 4546) (Staphylococcus sp.; strain GC 4546) | MIC Coagulase Negative Staphylococcus (GC 4547) (Staphylococcus sp.; strain GC 4547) | MIC Coagulase Negative Staphylococcus (GC 4548) (Staphylococcus sp.; strain GC 4548) | MIC Coagulase Negative Staphylococcus (GC 4549) (Staphylococcus sp.; strain GC 4549) | MIC Coagulase Negative Staphylococcus (GC 4551) (Staphylococcus sp.; strain GC 4551)
128 mg/L: MIC Enterococcus avium (GC 4558) (Enterococcus sp.) | MIC Enterococcus faecalis (GC 4553) (Enterococcus sp.) | MIC Enterococcus faecium (GC 2243) (Enterococcus sp.) | MIC Enterococcus faecium (GC 2243) (Enterococcus sp.; inoculum 5×10^5 CFU/mL, strain GC 2243) | MIC Enterococcus faecalis (GC 4553) (Enterococcus sp.; inoculum 5×10^5 CFU/mL, strain GC 4553) | MIC Enterococcus avium (GC 4558) (Enterococcus sp.; inoculum 5×10^5 CFU/mL, strain GC 4558) | MIC Staphylococcus aureus (ATCC 29213) (Staphylococcus sp.) | MIC Staphylococcus aureus (GC 1131) (Staphylococcus sp.) | MIC Staphylococcus aureus (GC 3051) (Staphylococcus sp.) | MIC Staphylococcus aureus (GC 3053) (Staphylococcus sp.) | MIC Staphylococcus aureus (GC 4544) (Staphylococcus sp.) | MIC Staphylococcus aureus (GC 4545) (Staphylococcus sp.) | MIC Staphylococcus aureus (ATCC 29213) (Staphylococcus sp.; strain ATCC 29213) | MIC Staphylococcus aureus (GC 1131) (Staphylococcus sp.; strain GC 1131) | MIC Staphylococcus aureus (GC 3051) (Staphylococcus sp.; strain GC 3051) | MIC Staphylococcus aureus (GC 3053) (Staphylococcus sp.; strain GC 3053) | MIC Staphylococcus aureus (GC 4544) (Staphylococcus sp.; strain GC 4544) | MIC Staphylococcus aureus (GC 4545) (Staphylococcus sp.; strain GC 4545)
32 mg/L: MIC Enterococcus faecium (GC 4557) (Enterococcus sp.) | MIC Enterococcus faecium (GC 4557) (Enterococcus sp.; inoculum 5×10^5 CFU/mL, strain GC 4557) | MIC Streptococcus agalactiae (GC 4564) (Streptococcus sp.) | MIC Streptococcus pneumoniae (ATCC 6301) (Streptococcus sp.) | MIC Streptococcus pneumoniae (GC 4565) (Streptococcus sp.) | MIC Streptococcus pneumoniae (ATCC 6301) (Streptococcus sp.; [4]) | MIC Streptococcus agalactiae (GC 4564) (Streptococcus sp.; [7]) | MIC Streptococcus pneumoniae (GC 4565) (Streptococcus sp.; [8]) | MIC Coagulase Negative Staphylococcus (GC 6257) (Staphylococcus sp.) | MIC Coagulase Negative Staphylococcus (GC 6257) (Staphylococcus sp.; strain GC 6257) | MIC Escherichia coli (GC 4560) (Escherichia coli)
16 mg/L: MIC Streptococcus pneumoniae (GC 1894) (Streptococcus sp.) | MIC Streptococcus pneumoniae (GC 1894) (Streptococcus sp.; [5])

CC(c1ccccc1)C1NC(=O)CNC(=O)C(CO)NC(=O)C(C(O)C2CNC(=N)N2C2OC(CO)C(O)C(O)C2O)NC(=O)C(C(O)C2CNC(=N)N2)NC(=O)C(Cc2ccc(OC3OC(CO)C(OC4OC(COCC=C(c5ccccc5)c5ccccc5)C(O)C(O)C4O)C(O)C3O)cc2)NC1=O (centres unmarked) [Example 241]
>64 mg/L: MIC Escherichia coli (ATCC 25922) (Escherichia coli) | MIC Escherichia coli (GC 4559) (Escherichia coli)
1 mg/L: MIC Coagulase Negative Staphylococcus (GC 4548) (Staphylococcus sp.) | MIC Coagulase Negative Staphylococcus (GC 4548) (Staphylococcus sp.; strain GC 4548)
<0.06 mg/L: MIC Streptococcus agalactiae (GC 4564) (Streptococcus sp.) | MIC Streptococcus pneumoniae (ATCC 6301) (Streptococcus sp.) | MIC Streptococcus pneumoniae (GC 1894) (Streptococcus sp.) | MIC Streptococcus pneumoniae (GC 4565) (Streptococcus sp.) | MIC Streptococcus pyogenes (GC 4563) (Streptococcus sp.) | MIC Streptococcus pneumoniae (ATCC 6301) (Streptococcus sp.; [4]) | MIC Streptococcus pneumoniae (GC 1894) (Streptococcus sp.; [5]) | MIC Streptococcus pyogenes (GC 4563) (Streptococcus sp.; [6]) | MIC Streptococcus agalactiae (GC 4564) (Streptococcus sp.; [7]) | MIC Streptococcus pneumoniae (GC 4565) (Streptococcus sp.; [8])
4 mg/L: MIC Enterococcus avium (GC 4558) (Enterococcus sp.) | MIC Enterococcus faecalis (ATCC 29212) (Enterococcus sp.) | MIC Enterococcus faecalis (GC 2242) (Enterococcus sp.) | MIC Enterococcus faecalis (GC 2691) (Enterococcus sp.) | MIC Enterococcus faecalis (GC 4552) (Enterococcus sp.) | MIC Enterococcus faecalis (GC 4553) (Enterococcus sp.) | MIC Enterococcus faecalis (GC 4554) (Enterococcus sp.) | MIC Enterococcus faecium (GC 2243) (Enterococcus sp.) | MIC Enterococcus faecium (GC 4556) (Enterococcus sp.) | MIC Enterococcus faecalis (ATCC 29212) (Enterococcus sp.; strain ATCC 29212) | MIC Enterococcus faecium (GC 2243) (Enterococcus sp.; strain GC 2243) | MIC Enterococcus faecalis (GC 4552) (Enterococcus sp.; strain GC 4552) | MIC Enterococcus faecalis (GC 4553) (Enterococcus sp.; strain GC 4553) | MIC Enterococcus faecalis (GC 4554) (Enterococcus sp.; strain GC 4554) | MIC Enterococcus faecium (GC 4556) (Enterococcus sp.; strain GC 4556) | MIC Enterococcus avium (GC 4558) (Enterococcus sp.; strain GC 4558) | MIC Enterococcus faecalis (GC 2242) (Enterococcus sp.; [1]) | MIC Enterococcus faecalis (GC 2691) (Enterococcus sp.; [2]) | MIC Coagulase Negative Staphylococcus (GC 4551) (Staphylococcus sp.) | MIC Coagulase Negative Staphylococcus (GC 4551) (Staphylococcus sp.; strain GC 4551)
2 mg/L: MIC Enterococcus faecalis (GC 3059) (Enterococcus sp.) | MIC Enterococcus faecalis (GC 6189) (Enterococcus sp.) | MIC Enterococcus faecium (GC 4557) (Enterococcus sp.) | MIC Enterococcus faecium (GC 4557) (Enterococcus sp.; strain GC 4557) | MIC Enterococcus faecalis (GC 6189) (Enterococcus sp.; strain GC 6189) | MIC Enterococcus faecalis (GC 3059) (Enterococcus sp.; [3]) | MIC Coagulase Negative Staphylococcus (GC 4547) (Staphylococcus sp.) | MIC Coagulase Negative Staphylococcus (GC 4549) (Staphylococcus sp.) | MIC Coagulase Negative Staphylococcus (GC 6257) (Staphylococcus sp.) | MIC Staphylococcus aureus (ATCC 29213) (Staphylococcus sp.) | MIC Staphylococcus aureus (GC 1131) (Staphylococcus sp.) | MIC Staphylococcus aureus (GC 3051) (Staphylococcus sp.) | MIC Staphylococcus aureus (GC 3053) (Staphylococcus sp.) | MIC Staphylococcus aureus (GC 4541) (Staphylococcus sp.) | MIC Staphylococcus aureus (GC 4542) (Staphylococcus sp.) | MIC Staphylococcus aureus (GC 4544) (Staphylococcus sp.) | MIC Staphylococcus aureus (GC 4545) (Staphylococcus sp.) | MIC Staphylococcus aureus-SMITH (GC 4543) (Staphylococcus sp.) | MIC Staphylococcus haemolyticus (GC 4546) (Staphylococcus sp.) | MIC Staphylococcus aureus (ATCC 29213) (Staphylococcus sp.; strain ATCC 29213) | MIC Staphylococcus aureus (GC 1131) (Staphylococcus sp.; strain GC 1131) | MIC Staphylococcus aureus (GC 3051) (Staphylococcus sp.; strain GC 3051) | MIC Staphylococcus aureus (GC 3053) (Staphylococcus sp.; strain GC 3053) | MIC Staphylococcus aureus (GC 4541) (Staphylococcus sp.; strain GC 4541) | MIC Staphylococcus aureus (GC 4542) (Staphylococcus sp.; strain GC 4542) | MIC Staphylococcus aureus-SMITH (GC 4543) (Staphylococcus sp.; strain GC 4543) | MIC Staphylococcus aureus (GC 4544) (Staphylococcus sp.; strain GC 4544) | MIC Staphylococcus aureus (GC 4545) (Staphylococcus sp.; strain GC 4545) | MIC Staphylococcus haemolyticus (GC 4546) (Staphylococcus sp.; strain GC 4546) | MIC Coagulase Negative Staphylococcus (GC 4547) (Staphylococcus sp.; strain GC 4547) | MIC Coagulase Negative Staphylococcus (GC 4549) (Staphylococcus sp.; strain GC 4549) | MIC Coagulase Negative Staphylococcus (GC 6257) (Staphylococcus sp.; strain GC 6257) | MIC Escherichia coli (GC 4560) (Escherichia coli)
